# In PubChem BioAssay (NCI):
#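 Method: 48-hour compound exposure of cells in 96-well plates, five concentrations, linear interpolation of endpoints. Definition used: TGI = concentration required for complete inhibition of growth.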
# How the values were obtained:
# Test in all cases: inhibition of tumour cell growth, NCI panel, 48 h
# CAKI-1 renal = system: CAKI-1 renal
# HCT-116 colon = system: HCT-116 colon
# IGROV1 ovarian = system: IGROV1 ovarian
# MDA-MB-435 = system: MDA-MB-435
# NCI-H23 lung = system: NCI-H23 lung
# SF-295 CNS = system: SF-295 CNS
# SK-OV-3 ovarian = system: SK-OV-3 ovarian
# SNB-19 CNS = system: SNB-19 CNS
# T-47D breast = system: T-47D breast
# TK-10 renal = system: TK-10 renal
# UACC-257 melanoma = system: UACC-257 melanoma
SMILES,TGI (CAKI-1 renal) [µM],TGI (HCT-116 colon) [µM],TGI (IGROV1 ovarian) [µM],TGI (MDA-MB-435) [µM],TGI (NCI-H23 lung) [µM],TGI (SF-295 CNS) [µM],TGI (SK-OV-3 ovarian) [µM],TGI (SNB-19 CNS) [µM],TGI (T-47D breast) [µM],TGI (TK-10 renal) [µM],TGI (UACC-257 melanoma) [µM]
Cc1cccc(C2ON=C(c3ccccc3)N2C23CC4CC(CC(C4)C2)C3)c1 (stereo not drawn),> 10,> 10,> 10,> 10,> 10,> 10,> 10,> 10,> 10,> 10,> 10
CCOC1OC(CO)C(O)CC1n1ccc(=O)[nH]c1=O (stereo not drawn),> 100,> 100,> 100,> 100,> 100,> 100,,> 100,> 100,> 100,> 100
CC1(C)OP(=O)(c2ccccc2)C=C1Sc1ccc([N+](=O)[O-])cc1[N+](=O)[O-] (stereo not drawn),> 100,> 100,> 100,> 100,> 100,> 100,> 100,> 100,> 100,> 100,> 100
COc1ccccc1NC(=O)C1=C(C)NC(C)=C(C(=O)Nc2ccccc2OC)C1c1ccccc1[N+](=O)[O-],,> 100,45,,43.6,> 100,68,,,59.2,47.5
Cn1c(=O)c2[nH]c(N=O)nc2n(C)c1=O,> 100,> 100,> 100,> 100,> 100,> 100,> 100,,> 100,> 100,> 100
CC(C)OC(=O)c1ccc(NCc2cc(O)ccc2O)cc1,2.81,19.8,15,12.9,18,20.4,> 100,> 68.7,4.66,14.7,26.2
COc1ccc2[nH]c3c(c2c1)[C@H](c1ccccc1)C[C@@H]1C(=O)N(c2ccccc2)C(=O)[C@H]31,71.7,19,> 100,,,> 100,50,> 100,,> 100,> 100
Cc1ccc(C(=O)CC2(O)C(=O)Nc3c(C)cc(Cl)cc32)cc1 (stereo not drawn),> 100,,,,> 100,> 100,> 100,> 100,,> 100,> 100
CO/C(N)=C(\C#N)N=Cc1ccc2ccccc2c1,> 100,> 100,> 100,> 100,> 100,> 100,> 100,,> 100,> 100,91.3
CC1=CC2C(C=C1)S(=O)(=O)N1CC21c1ccccc1 (stereo not drawn),> 100,> 100,> 100,,> 100,> 100,> 100,> 100,,> 100,> 100
CSc1ncnc2c1cnn2Cc1cn(COCCO)nn1,,> 100,> 100,42.3,> 100,,> 100,> 100,> 100,> 100,> 100
CNC(=O)c1n[nH]n(C2CCCCC2)c1=S,> 100,> 100,> 100,> 100,> 100,> 100,> 100,> 100,> 100,,> 100
COc1ccc(C2=Nc3c(nc(OC)[nH]c3=O)NC(c3ccccc3)C2)cc1 (stereo not drawn),> 100,> 100,> 100,> 100,> 100,> 100,,> 100,,,> 100
N#CC(NNC(=O)Cc1ccccc1)c1cccc(O)c1 (stereo not drawn),> 100,> 100,> 100,,> 100,> 100,> 100,,,> 100,> 100
CCOC(=O)c1c2ccc(/C=C/c3ccccn3)ccc-2c(C(=O)OCC)c1N,> 100,,> 100,,> 100,> 100,> 100,> 100,,> 100,> 100
O=Cc1c[nH]c2c(=O)[nH]cnc12,> 100,> 100,> 100,,> 100,> 100,> 100,> 100,,> 100,> 100
Cc1cc2ncn(-c3nc4ccccc4nc3C(C#N)S(C)(=O)=O)c2cc1C (stereo not drawn),> 100,> 100,> 100,,> 100,,> 100,> 100,,> 100,> 100
Nc1nc(NNc2cccc(F)c2)cc(=O)[nH]1,,61.2,> 100,64.9,> 100,> 100,,> 100,,> 100,> 100
Nc1nc2c(N)cc(C(F)(F)F)cc2nc1-c1ccccc1,> 100,> 100,> 100,,> 100,> 100,> 100,> 100,,> 100,> 100
CSc1nc(=S)[nH]c2c1c(C)nn2-c1ccccc1,40.3,43.2,,> 100,45.8,84.4,90.3,> 100,62.5,> 100,51.9
O=c1[nH]nc(Cc2ccccc2)n1/N=C/c1cccs1,> 100,> 100,,> 100,> 100,> 100,> 100,> 100,> 100,,> 100
CC(=O)OI1NC(=O)c2ccccc21,,> 100,> 100,> 100,> 100,> 100,> 100,> 100,,> 100,
O=C1CN(c2ccccc2)Cc2nc(Cl)ccc2N1,> 100,> 100,> 100,> 100,,> 100,> 100,> 100,> 100,> 100,> 100
